The data set in a line: In vitro half-life. The class given is in vitro ADME. From the text:
The safety profile of TH9507 is generally good.

Usually half-life stands for how long it takes for the measured level to halve. Lower therefore signals fast loss. Regarding `CC[C@H](C)[C@H](NC(=O)[C@H](C)NC(=O)[C@H](CC(=O)O)NC(=O)[C@H](C)NC(=O)[C@@H](N)Cc1ccc(O)cc1)C(=O)N[C@@H](Cc1ccccc1)C(=O)N[C@H](C(=O)N[C@@H](CC(N)=O)C(=O)N[C@@H](CO)C(=O)N[C@@H](Cc1ccc(O)cc1)C(=O)N[C@@H](CCCNC(=N)N)C(=O)N[C@@H](CCCCN)C(=O)N[C@H](C(=O)N[C@@H](CC(C)C)C(=O)NCC(=O)N[C@@H](CCC(N)=O)C(=O)N[C@@H](CC(C)C)C(=O)N[C@@H](CO)C(=O)N[C@@H](C)C(=O)N[C@@H](CCCNC(=N)N)C(=O)N[C@@H](CCCCN)C(=O)N[C@@H](CC(C)C)C(=O)N[C@@H](CC(C)C)C(=O)N[C@@H](CCC(N)=O)C(=O)N[C@@H](CC(=O)O)C(=O)N[C@H](C(=O)N[C@@H](CCSC)C(=O)N[C@@H](CO)C(=O)N[C@@H](CCCNC(=N)N)C(=O)N[C@@H](CCC(N)=O)C(=O)N[C@@H](CCC(N)=O)C(=O)NCC(=O)N[C@@H](CCC(=O)O)C(=O)N[C@@H](CO)C(=O)N[C@@H](CC(N)=O)C(=O)N[C@@H](CCC(N)=O)C(=O)N[C@@H](CCC(=O)O)C(=O)N[C@@H](CCCNC(=N)N)C(=O)NCC(=O)N[C@@H](C)C(=O)N[C@@H](CCCNC(=N)N)C(=O)N[C@@H](C)C(=O)N[C@@H](CCCNC(=N)N)C(=O)N[C@@H](CC(C)C)C(N)=O)[C@@H](C)CC)C(C)C)[C@@H](C)O` [hGRF, hGRF(1-44)NH2, reference compound], the half-life was 33.6 min.

The values above are taken from patent publication US8481489B2, “GH secretagogues and uses thereof” (Theratechnologies Inc., priority 2003, dated 2013).
